Series [1] can be described thus: Dose finding and clinical tolerance study of inecalcitol with docetaxel-prednisone in HRPC patients (safety). As to conditions: for adverse events related to the drug: attribution of the AEs seen under the combination. The class given is in vivo, human. Here is the method: Escalating oral dosages of inecalcitol were combined to chemotherapy in naive HRPC patients. Safety was evaluated in groups of 3-6 patients receiving inecalcitol every other day (qod) or daily (qd) on a 21-day cycle in combination with intravenous docetaxel (75 mg/m2 q3w) and oral prednisone (5 mg bid). Patients (pts) received up to six cycles unless unacceptable toxicity or disease progression. Primary endpoint was dose limiting toxicity (DLT) defined as grade 3 hypercalcemia within the first cycle. Calcemia, creatininemia and complete blood counts were assessed weekly; biochemistry, electrocardiogram and prostate specific antigen (PSA) every 3 weeks. Efficacy endpoint was PSA response defined as ≧30% decline within 3 months.
(§1) Inecalcitol was given to patients in soft gelatine capsules of different sizes, shapes and strengths depending on the dose level studied: one, two or four 40 μg capsules (size 11, oblong shape) for administration of 40, 80 or 160 μg/day, respectively; three or six 100 μg capsules (size 4, round shape) for administration of 300 or 600 μg/day, respectively; five 200 μg capsules (size 7.5, oval shape) for administration of 1,000 μg/day; five 400 μg capsules (size 14, oblong shape) for administration of 2 mg/day, and four 1 mg capsules (size 14, oblong shape) for administration of 4 mg/day. In all the capsules, inecalcitol was present in the fill content as a solution in medium chain triglycerides from fractionated coconut oil at different concentrations depending on the capsule strengths.

Series [2] in a line: 2-week toxicology study of twice-a-day oral inecalcitol in monkeys (calcemia, toxicity). It is filed as in vivo, cynomolgus monkeys. The following applies: for plasma calcium level (mean±s.e.m.): same 4 animals. Here is the method: (§2) On FIG. 2, mean plasma concentrations of inecalcitol are plotted vs. time on the first day of treatment with two successive administrations of inecalcitol around 8 AM and 7 PM, i.e. about 11 hours apart. […] In both instances, inecalcitol levels returned to basal levels within 4 hours. In the table below, plasma calcium levels (in mmoles/L, mean±s.e.m.) were monitored in the same 4 animals for two weeks before and for two weeks during the treatment period.

For series [3], the system named is human breast cancer cells. As to conditions: in vitro and in vivo; Verlinden et al. 2000; cited from earlier work.
For series [4] the following is noted: Eelen et al. 2005; Verlinden et al. 2001; cited from earlier work.
Series [5] in a line: 9-month toxicology study of once-a-day oral inecalcitol in monkeys (calcemia, toxicity). The class given is in vivo. Here is the method: (§3) On FIG. 1, mean plasma concentrations of inecalcitol are plotted vs. time on the first day of the study and close to its end, at day 272. The mean toxicokinetic profiles are almost superimposable, with a mean peak of about 1.2 ng/ml achieved as soon as 15 minutes after oral intake, and a steady disappearance from circulation within 4 hours.

The conditions of series [6]: Eelen et al. 2005; Verlinden et al. 2001; cited from earlier work. The source holds these as a separate data set.
Series [7] in a line: 9-month toxicokinetic study of once-a-day oral inecalcitol in monkeys (plasma concentrations). It is filed as in vivo. As to conditions: male mature monkeys, day 1 and day 272. How it is done:
FIG. 1 illustrates the mean plasma concentrations vs time obtained during a 9-month toxicology study on once-a-day oral inecalcitol performed in male mature monkeys.
as §3

The nature of series [8]: Pharmacokinetics of oral inecalcitol in HRPC patients (LC/MS/MS of plasma). The class given is in vivo. As to conditions: human patients. Here is the method:
as §1
Inecalcitol was assayed as unchanged circulating compound in the plasma by liquid chromatography followed by tandem mass spectrometry (LC/MS/MS). […] At 600 μg and 1000 μg, mean peak values reached around 35 and 45 pg/ml (0.035 and 0.045 ng/ml) at 90 and 45 minutes, respectively.

The nature of series [9]: 2-week toxicokinetic study of twice-a-day oral inecalcitol in monkeys (plasma concentrations). It is filed as in vivo, cynomolgus monkeys. The following applies: first day of treatment. How it is done:
FIG. 2 illustrates the mean plasma concentrations vs time obtained during a 2-week toxicology study on twice-a-day oral inecalcitol performed in male juvenile monkeys.
as §2

Where [10] appears, read: male juvenile cynomolgus monkeys, twice daily oral, 2×1.6 mg each day, 2 weeks.
Where [11] appears, read: 50 pts treated, inecalcitol with docetaxel and prednisone.
The mark [12] stands for this setting: HRPC patients, oral 300 μg, 600 μg, 1000 μg (qod,qd), 2 mg (qd) or 4 mg (qd).
[13] abbreviates: male mature cynomolgus monkeys, daily oral, 9 months, up to highest tested dose 1.8 mg per day per monkey.

SMILES strings stand for the structures.

Take `CC(=O)O[C@@]12CO[C@@H]1C[C@H](O)[C@@]1(C)C(=O)[C@H](O)C3=C(C)[C@@H](OC(=O)[C@H](O)[C@@H](NC(=O)OC(C)(C)C)c4ccccc4)C[C@@](O)([C@@H](OC(=O)c4ccccc4)[C@H]21)C3(C)C` [docetaxel, reference compound]: the “adverse events related to the drug” value in series [1] was “All these AEs”.

Broadly, the half-life is the time needed for the level to fall by half in the phase considered. As for `C[C@H](CC#CC(C)(C)O)[C@H]1CC[C@@H]2/C(=C/C=C3C[C@@H](O)C[C@H](O)C3)CCC[C@@]21C` [inecalcitol, 19-nor-9,10-seco-14βH-cholesta-5(Z),7(E)-dien-23-ino-1α,3β,25-triol-23-yne], the hypercalcemia result in [2] (setting [10]) is “no hypercalcemia”; in series [1] (setting [12]) it was “did not induce any hypercalcemia”; in series [5] (setting [13]), “no hypercalcemia”. Also, the toxic effects entry in [2] (setting [10]) and in series [5] (setting [13]) was “no toxic effects” in each case. In addition, the “plasma calcium level (mean±s.e.m.)” value in series [2] (Day 7 of treatment, 2×1.6 mg each day) was 2.68 ± 0.15 mmol/L; in series [2] (Day 13 of treatment, 2×1.6 mg each day), 2.76 ± 0.12 mmol/L; in series [2] (Day −6 (before treatment)), 2.61 ± 0.06 mmol/L; in [2] (Day −13 (before treatment)), 2.66 ± 0.088 mmol/L; in [5] (treated monkeys n = 6, Day 85) it was 2.53 ± 0.03 mmol/L; in [5] (treated monkeys n = 6, Day 175) it was 2.49 ± 0.05 mmol/L. Also, the “plasma calcium level (mean±s.e.m.)” value was 2.51 ± 0.05 mmol/L in series [5] (treated monkeys n = 6, Day 268) and 2.54 ± 0.11 mmol/L in series [5] (treated monkeys n = 6, Day −12 (before treatment)). The “changes in plasma calcium” value in series [2] (two weeks before vs two weeks during treatment) is “No significant changes”. Also, in [3], the “activity on growth of human breast cancer cells” value is reported as “inhibiting the growth”. In series [1] (setting [11]), the “G1-2 adverse event: asthenia” value came to 22 pts. The “G1-2 adverse event: constipation” value in series [1] (setting [11]) came to 15 pts. For the same molecule, the “G1-2 adverse event: diarrhea” value in series [1] (setting [11]) amounted to 13 pts. Moreover, the “G3-4 AE: arrhythmia” value in [1] (setting [11]) amounted to 2 pts. In series [1] (setting [11]), the “G3-4 AE: asthenia” value was 3 pts. In addition, in series [1] (setting [11]), the “G3-4 AE: diarrhea” value stood at 1 pt. Also, in series [1] (setting [11]), the “G3-4 AE: general health deterioration” value is 3 pts. In addition, in series [1] (setting [11]), the “G3-4 AE: lymphopenia” value stood at 12 pts. In addition, in series [1] (setting [11]), the “G3-4 AE: neutropenia” value was found to be 36 pts. Besides, the increased calcemia result in series [1] (HRPC patients, oral 40 μg to 4 mg qod or qd, with docetaxel and prednisone, 50 pts treated) is reported as “No increased calcemia”. In addition, in [1] (setting [12]), the toxic effect entry is recorded as “did not induce any hypercalcemia or any toxic effect”. Moreover, the “adverse events related to the drug” value in series [1] was “none”. In addition, the “antiproliferative effects compared with calcitriol” value in series [4] is “enhanced”. The maximal tolerated dose result in [5] (9-month daily oral, highest tested dose 1.8 mg per day per monkey) was “has not been reached”. In addition, the “difference in plasma calcium levels between control and treated monkeys” value in series [5] (different time points during the 9-month study) is given as “did not show any difference”. Besides, the “calcemic effects compared with calcitriol” value in series [6] is listed as “markedly lower”. The “mean peak plasma concentration” value in series [7] (1.8 mg per day) is on record as “about 1.2 ng/ml”. For the same molecule, the disappearance from circulation in series [7] is at most 4 h. Also, the “time of mean peak after oral intake” value in series [7] is 15 min. Further, the peak plasma values entry in series [8] (oral 300 μg, lower limit of quantitation 10 pg/ml) is recorded as “barely detectable above the lower limit of quantitation”. The “time of mean peak value” in series [8] (oral 600 μg) was 90 min; in series [8] (oral 1000 μg), 45 min; in [8] (oral 2 mg), 90 min; in [8] (oral 4 mg), 45 min. In addition, in [8] (male, plasma, four mean profiles between 600 μg and 4 mg oral, read-out: approximate half-life), the half-life lay within 1 to 1.5 h. Moreover, in series [9] (after each of the two administrations), the “return of inecalcitol levels to basal levels” value is at most 4 h. Further, the “peak mean plasma concentration, second administration” value in series [9] (male juvenile monkeys, 1.6 mg oral around 7 PM) is 2.50 ng/mL. Further, in series [9] (male juvenile monkeys, 1.6 mg oral around 8 AM), the “peak mean plasma concentration, first administration” value came to 2.75 ng/mL.
